Consider 33 compounds from patent publication US11993604B2, “Substituted pyrazolo[4,3-H]quinazolines as protein kinase inhibitors” (SHENGKE PHARMACEUTICALS (JIANGSU) LTD., priority 2017, dated 2024).

One test deals with CDK6/cyclin D1 (Homo sapiens, UniProt Q00534). Description: Biochemical kinase inhibition test, CDK6/cyclin D1 (similar method). The note with it: for IC50: three-fold serial dilution from 10 μM, 10 μM ATP, read-out: CDK6/D1 (nM), enzyme inhibitory activity IC50; for selectivity for CDK6/cyclin D1 relative to CDK4/cyclin D1 (enzyme inhibitory activity): CDK6/cyclin D1 versus CDK4/cyclin D1. The method, then:
Potency determination of biochemical kinase inhibition test. Kinase activity test and IC50 determination. Firstly, 10 ng of recombinant CDK4/Cyclin D1 (Life Technologies PV4204) was diluted in kinase buffer (20 mM Tris pH 7.5, 10 mM MgCl2, 0.01% NP-40, 2 mM DTT), and was incubated with inhibitors at the indicated concentration at room temperature for 30 minutes. The kinase reaction was initiated by adding […] (1.5 μM) of recombinant retinoblastoma protein, 5 μM ATP and 10μ Ci γ-32P-ATP. The reaction was incubated at 30° C. for 20 minutes, and was terminated by adding 2× Laemmli sample buffer, heated at 95° C. for three minutes, and the resulting solution was dissolved with 12% acrylamide SDS-PAGE and autoradiographed. A densitometer (Bio-Rad) was used to quantify the corresponding phosphorylated substrate protein bands. The resulting density values were plotted as a function of the log drug concentration using Prism 4 Graphpad software. IC50 values were determined by plotting a non-linear regression curve with a variable slope.
The inhibitory activity of the compounds disclosed herein against CDK6/cyclin D1 was tested by a similar method.
The compounds were tested in a three-fold serial dilution from the starting concentration of 10 μM, over 10-fold of IC50. The control compound, staurosporine, was tested in a four-fold serial dilution from the starting concentration of 20 μM, over 10-fold of IC50. These reactions took place in the presence of 10 μM ATP.

In test [1] the target is T1, recombinant CDK4/Cyclin D1 (Homo sapiens, UniProt P11802).
T1 construct: purchased Life Technologies PV4204
T1 sequence (P11802 whole entry): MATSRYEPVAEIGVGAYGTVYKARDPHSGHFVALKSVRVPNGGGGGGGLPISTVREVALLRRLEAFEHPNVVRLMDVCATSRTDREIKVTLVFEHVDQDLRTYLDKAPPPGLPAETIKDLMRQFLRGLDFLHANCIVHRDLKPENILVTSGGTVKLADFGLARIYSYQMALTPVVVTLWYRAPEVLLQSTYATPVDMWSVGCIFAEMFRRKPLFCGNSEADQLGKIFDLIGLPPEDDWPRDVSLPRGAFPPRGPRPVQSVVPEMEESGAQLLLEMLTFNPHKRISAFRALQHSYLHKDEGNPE
T1 sequence (P24385 whole entry partner): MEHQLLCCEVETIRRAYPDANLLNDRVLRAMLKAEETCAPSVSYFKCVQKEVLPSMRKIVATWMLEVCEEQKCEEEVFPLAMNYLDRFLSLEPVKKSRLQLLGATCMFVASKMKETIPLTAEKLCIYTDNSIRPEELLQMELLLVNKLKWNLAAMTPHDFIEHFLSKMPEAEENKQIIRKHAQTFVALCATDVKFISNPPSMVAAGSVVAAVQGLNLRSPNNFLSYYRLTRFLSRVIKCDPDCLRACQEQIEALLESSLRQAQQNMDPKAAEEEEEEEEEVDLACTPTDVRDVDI
Description: Biochemical kinase inhibition test, CDK4/Cyclin D1 (32P-ATP, retinoblastoma protein substrate). Conditions: three-fold serial dilution from 10 μM; 10 μM ATP; read-out: CDK4/D1 (nM), enzyme inhibitory activity IC50.

CDK6/cyclin D1, sequence (Q00534 whole entry, species assumed): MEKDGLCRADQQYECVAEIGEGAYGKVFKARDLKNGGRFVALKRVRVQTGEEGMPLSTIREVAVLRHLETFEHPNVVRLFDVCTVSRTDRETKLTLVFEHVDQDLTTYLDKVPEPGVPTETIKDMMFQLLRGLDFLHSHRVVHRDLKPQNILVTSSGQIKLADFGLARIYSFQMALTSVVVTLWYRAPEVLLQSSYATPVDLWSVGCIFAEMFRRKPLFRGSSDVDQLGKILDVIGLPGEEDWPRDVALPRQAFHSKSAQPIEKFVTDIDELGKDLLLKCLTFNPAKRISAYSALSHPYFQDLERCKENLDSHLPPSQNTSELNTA
CDK6/cyclin D1, sequence (P24385 whole entry partner, species assumed): as the sequence (P24385 whole entry partner) above

For the compound `c1cc(Nc2ncc3ccc4cnn(C5CCCC5)c4c3n2)ncc1N1CCOCC1` [Compound I-42], the IC50 (at CDK6/cyclin D1; in test [1]) was 1 to 5 nM in each case.
Consider `Cc1nc(Nc2ncc3ccc4cnn(C5CCCC5)c4c3n2)ccc1N1CCOCC1` [Compound I-43], for which the IC50 (at CDK6/cyclin D1; in test [1]) was 1 to 5 nM each time.
Turning to `Cc1cc(Nc2ncc3ccc4cnn(C5CCCC5)c4c3n2)ncc1N1CCOCC1` [Compound I-44], the IC50 (at CDK6/cyclin D1; in test [1]) was 10 to 20 nM in each case.
Consider `CCn1ncc2ccc3cnc(Nc4ccc(N5CCNCC5)cn4)nc3c21.Cl` [Compound I-45], for which, at CDK6/cyclin D1, the “selectivity for CDK6/cyclin D1 relative to CDK4/cyclin D1 (enzyme inhibitory activity)” value is given as “about 3 times” and the IC50 fell in the range of 5 to 10 nM. Moreover, in test [1], the IC50 is 10 to 20 nM.
Turning to `CCn1ncc2ccc3cnc(Nc4cc(F)c(N5CCNCC5)cn4)nc3c21.Cl` [Compound I-46], at CDK6/cyclin D1, the “selectivity for CDK6/cyclin D1 relative to CDK4/cyclin D1 (enzyme inhibitory activity)” value is “about 2 times” and the IC50 is 10 to 20 nM. The IC50 in test [1] was in the range of 20 to 50 nM.
Regarding `CCn1ncc2ccc3cnc(Nc4ccc(N5CCNCC5)c(F)n4)nc3c21.Cl` [Compound I-47], on CDK6/cyclin D1, the “selectivity for CDK6/cyclin D1 relative to CDK4/cyclin D1 (enzyme inhibitory activity)” value is “about 2 times” and the IC50 lay within 5 to 10 nM. In addition, in test [1], the IC50 was in the range of 10 to 20 nM.
On the same counts, the results for `CCN1CCN(c2ccc(Nc3ncc4ccc5cnn(CC)c5c4n3)nc2)CC1` [Compound I-48] are “about 3 times”, 5 to 10 nM and 10 to 20 nM.
Take `CCN1CCN(c2cnc(Nc3ncc4ccc5cnn(CC)c5c4n3)cc2C)CC1` [Compound I-49]: on CDK6/cyclin D1, the “selectivity for CDK6/cyclin D1 relative to CDK4/cyclin D1 (enzyme inhibitory activity)” value is reported as “about 2 times”. Also, the IC50 on CDK6/cyclin D1 was 10 to 20 nM; in test [1], 20 to 50 nM.
Consider `CCn1ncc2ccc3cnc(Nc4ccc(N5CCOCC5)cn4)nc3c21` [Compound I-50], for which, on CDK6/cyclin D1, the “selectivity for CDK6/cyclin D1 relative to CDK4/cyclin D1 (enzyme inhibitory activity)” value is “about 3 times” and the IC50 is 5 to 10 nM. For the same compound, the IC50 in test [1] lay within 10 to 20 nM.
For `CCn1ncc2ccc3cnc(Nc4cc(C)c(N5CCN(C)CC5)cn4)nc3c21` [Compound I-51], at CDK6/cyclin D1, the “selectivity for CDK6/cyclin D1 relative to CDK4/cyclin D1 (enzyme inhibitory activity)” value is “about 2 times” and the IC50 lay in the range of 10 to 20 nM. Besides, the IC50 in test [1] lay in the range of 20 to 50 nM.
Take `CCn1ncc2ccc3cnc(Nc4cc(C)c(N5CCOCC5)cn4)nc3c21` [Compound I-52]: the IC50 (on CDK6/cyclin D1; in test [1]) was 10 to 20 nM throughout.
With `Cl.c1cc(Nc2ncc3ccc4cnn(C5CC5)c4c3n2)ncc1N1CCNCC1` [Compound I-53], the “selectivity for CDK6/cyclin D1 relative to CDK4/cyclin D1 (enzyme inhibitory activity)” value on CDK6/cyclin D1 was “about 2 times”. Also, the IC50 on CDK6/cyclin D1 lay in the range of 5 to 10 nM; in test [1] it was 10 to 20 nM.
As for `Cl.Fc1cc(Nc2ncc3ccc4cnn(C5CC5)c4c3n2)ncc1N1CCNCC1` [Compound I-54], on CDK6/cyclin D1, the “selectivity for CDK6/cyclin D1 relative to CDK4/cyclin D1 (enzyme inhibitory activity)” value is “about 2 times” and the IC50 is 10 to 20 nM. Besides, in test [1], the IC50 lay within 20 to 50 nM.
For the compound `Cc1cc(Nc2ncc3ccc4cnn(C5CC5)c4c3n2)ncc1N1CCN(C)CC1` [Compound I-55], on CDK6/cyclin D1, the “selectivity for CDK6/cyclin D1 relative to CDK4/cyclin D1 (enzyme inhibitory activity)” value was “about 2 times” and the IC50 was in the range of 10 to 20 nM. Also, in test [1], the IC50 was 20 to 50 nM.
For `CCN1CCN(c2ccc(Nc3ncc4ccc5cnn(C6CC6)c5c4n3)nc2)CC1` [Compound I-56], at CDK6/cyclin D1, the “selectivity for CDK6/cyclin D1 relative to CDK4/cyclin D1 (enzyme inhibitory activity)” value is listed as “about 3 times”. The IC50 on CDK6/cyclin D1 was 5 to 10 nM; in test [1] it was 10 to 20 nM.
For the compound `CCN1CCN(c2cnc(Nc3ncc4ccc5cnn(C6CC6)c5c4n3)cc2C)CC1` [Compound I-57], the IC50 (at CDK6/cyclin D1; in test [1]) was 10 to 20 nM in each case.
On to `c1cc(Nc2ncc3ccc4cnn(C5CC5)c4c3n2)ncc1N1CCOCC1` [Compound I-58], for which, on CDK6/cyclin D1, the “selectivity for CDK6/cyclin D1 relative to CDK4/cyclin D1 (enzyme inhibitory activity)” value is listed as “about 3 times”. The IC50 at CDK6/cyclin D1 lay in the range of 5 to 10 nM; in test [1], 10 to 20 nM.
Take `Cc1cc(Nc2ncc3ccc4cnn(C5CC5)c4c3n2)ncc1N1CCOCC1` [Compound I-59]: the IC50 (at CDK6/cyclin D1; in test [1]) was 10 to 20 nM throughout.
With `CC1CN(c2ccc(Nc3ncc4ccc5cnn(C6CC6)c5c4n3)nc2)CCO1` (stereo not shown) [Compound I-60], the IC50 (at CDK6/cyclin D1; in test [1]) was 10 to 20 nM throughout.
For the compound `CC(C)n1ncc2c(Br)cc3cnc(Nc4ccc(N5CCNCC5)cn4)nc3c21` [Compound I-61], the IC50 (at CDK6/cyclin D1; in test [1]) was 10 to 20 nM throughout.
In the case of `CC(C)n1ncc2c(Br)cc3cnc(Nc4cc(F)c(N5CCNCC5)cn4)nc3c21.Cl` [Compound I-62], the “selectivity for CDK6/cyclin D1 relative to CDK4/cyclin D1 (enzyme inhibitory activity)” value on CDK6/cyclin D1 is “about 2 times”. The IC50 was in the range of 10 to 20 nM at CDK6/cyclin D1 and 20 to 50 nM in test [1].
On to `CC(C)n1ncc2c(Br)cc3cnc(Nc4ccc(N5CCN(C)CC5)cn4)nc3c21` [Compound I-63], for which the IC50 (at CDK6/cyclin D1; in test [1]) was 10 to 20 nM in each case.
As for `CCN1CCN(c2ccc(Nc3ncc4cc(Br)c5cnn(C(C)C)c5c4n3)nc2)CC1` [Compound I-64], the IC50 (on CDK6/cyclin D1; in test [1]) was 10 to 20 nM in each case.
On to `CC(C)n1ncc2c(Br)cc3cnc(Nc4ccc(N5CCOCC5)cn4)nc3c21` [Compound I-65], for which the IC50 (on CDK6/cyclin D1; in test [1]) was 10 to 20 nM throughout.
As to `Cc1cc2cnc(Nc3ccc(N4CCNCC4)cn3)nc2c2c1cnn2C(C)C.Cl` [Compound I-66], at CDK6/cyclin D1, the “selectivity for CDK6/cyclin D1 relative to CDK4/cyclin D1 (enzyme inhibitory activity)” value is listed as “about 3 times” and the IC50 fell in the range of 1 to 5 nM. Moreover, in test [1], the IC50 lay within 10 to 20 nM.
On to `Cc1cc2cnc(Nc3cc(F)c(N4CCNCC4)cn3)nc2c2c1cnn2C(C)C.Cl` [Compound I-67], for which, at CDK6/cyclin D1, the “selectivity for CDK6/cyclin D1 relative to CDK4/cyclin D1 (enzyme inhibitory activity)” value was “about 2 times” and the IC50 was 10 to 20 nM. Further, in test [1], the IC50 was in the range of 20 to 50 nM.
Consider `Cc1cc2cnc(Nc3ccc(N4CCN(C)CC4)cn3)nc2c2c1cnn2C(C)C` [Compound I-68], for which the values for the IC50 (on CDK6/cyclin D1; in test [1]) were 1 to 5 nM and 10 to 20 nM, respectively.
Turning to `CCN1CCN(c2ccc(Nc3ncc4cc(C)c5cnn(C(C)C)c5c4n3)nc2)CC1` [Compound I-69], the values for the IC50 (at CDK6/cyclin D1; in test [1]) were 1 to 5 nM and 10 to 20 nM, respectively.
On the same counts, the results for `Cc1cc2cnc(Nc3ccc(N4CCOCC4)cn3)nc2c2c1cnn2C(C)C` [Compound I-70] are 10 to 20 nM and 10 to 20 nM.
Turning to `CC(C)n1ncc2c(C#N)cc3cnc(Nc4ccc(N5CCNCC5)cn4)nc3c21.Cl` [Compound I-71], on CDK6/cyclin D1, the “selectivity for CDK6/cyclin D1 relative to CDK4/cyclin D1 (enzyme inhibitory activity)” value was “about 3 times”. The IC50 is 1 to 5 nM on CDK6/cyclin D1 and 10 to 20 nM in test [1].
As to `CC(C)n1ncc2c(C#N)cc3cnc(Nc4cc(F)c(N5CCNCC5)cn4)nc3c21.Cl` [Compound I-72], at CDK6/cyclin D1, the “selectivity for CDK6/cyclin D1 relative to CDK4/cyclin D1 (enzyme inhibitory activity)” value is “about 2 times” and the IC50 fell in the range of 10 to 20 nM. Besides, the IC50 in test [1] was 20 to 50 nM.
The like results for `CCN1CCN(c2ccc(Nc3ncc4cc(C#N)c5cnn(C(C)C)c5c4n3)nc2)CC1` [Compound I-73] were, in that order, “about 3 times”, 1 to 5 nM and 10 to 20 nM.
The like results for `CC(C)n1ncc2c(C#N)cc3cnc(Nc4ccc(N5CCOCC5)cn4)nc3c21` [Compound I-74] were, in that order, “about 3 times”, 1 to 5 nM and 10 to 20 nM.
